Holding throughout (type): cell-based, human
In test [1] the test system is pErk1/Erk2 in parental HB4a cells. Nature of the test: Western blot of MAPK activation (pErk1/Erk2) after GW2016 treatment, FIG. 3. The note with it: 1 μM or 5 μM GW2016/72 hours. As to the method:
(§1) The HB4a cell line was derived from human mammary luminal tissue. HB4a-erbB2 and HB4a-ras cell lines were generated by overexpression of erbB2 and mutant Ha-(Val-12)-ras in HB4a cell line. The S1 cell line was established by sub-cloning ErbB-2 transfected HB4a (see Harris R A, Eichholtz T J, Hiles J D, Page M J and O'Hare M J. (1999). Int J. Cancer. 80, 477, 484.)
(§2) HB4a cells grew in RPMI 1640 supplemented with L-glutamine, 10% FBS (Hyclone), 10 ug/ml hydrocortisone, and 5 ug/ml insulin. S1 and ras transfected cells were cultured in RPMI 1640 supplemented with L-glutamine, 10% FBS and 50 μg/ml hygromycin. Cell cultures were maintained in a humidified atmosphere of 5% CO2 at 37° C.
(§3) (a) The dual EGFR/erbB-2 inhibitor N-{3-Chloro-4-[(3-fluorobenzyl)oxy]phenyl}-6-[5-({[2-(methanesulphonyl)ethyl]amino}methyl)-2-furyl]-4-quinazolinamine and the cRaf-1 inhbitor of 3-(3,5-Dibromo-4-hydroxy-benzylidene)-5-iodo-1,3-dihydro-indol-2-one were dissolved in 100% DMSO to form solutions of 1, 5, 10, and 20 μM concentrations and tested on cells in growth medium for 3 continuous days. […]
(§4) Whole cell extracts were prepared by scraping cells off petri dishes, washing the cell pellet twice in PBS, and then resuspending the pellet in two-packed-cell volumes of RIPA buffer (150 mM NaCl, 50 mM Tris-HCl, pH 7.5, 0.25% deoxycholate, 1% NP-40, 5 mM sodium orthovanadate, 2 mM sodium fluoride and a protease inhibitor cocktail). Protein concentrations were determined using a modification of the Bradford method (Bio-Rad Laboratory). Steady state levels of total erbB-2, EGFR, Ras, Erk1/2, pErk1/2 and pTyr protein were assessed by Western blot which was carried out as follows: equal amounts of proteins was resolved by 7.5% SDS polyacrylamide gel electrophoresis under reducing conditions. […] Efficiency and equal loading of proteins was evaluated by Ponceau S staining. […]
(§5) HB4a cells growing in RPMI 1640 supplemented with L-glutamine, 10% FBS (Hyclone), 10 ug/ml hydrocortisone, and 5 μg/ml insulin. […] Protein concentrations were determined using a modification of the Bradford method (Bio-Rad Laboratory).
Background: A western blot detects proteins with antibodies after separation by electrophoresis.

Test [2] deals with pErk1/Erk2 in erbB-2 transfected HB4a cells. The test is described as above. Conditions: 1 μM or 5 μM GW2016/72 hours. As to the method: as §1, §2, §3, §4, §5
Test [3] relates to pErk1/Erk2 in Ha-(Val12)-ras transfected HB4a cells. The description is as above. The note with it: Ha-(Val 12)-ras transfected HB4a cells; 1 μM or 5 μM GW2016/72 hours. As to the method:
as §1, §2, §3, §4, §5

Test [4] relates to pTyr in parental HB4a cells. Nature of the test: Western blot of tyrosine phosphorylation (pTyr) after GW2016 treatment, FIG. 2. The note with it: 1 μM or 5 μM GW2016/72 hours. The protocol: as §1, §2, §3, §4, §5
Test [5] relates to pTyr in erbB-2 transfected HB4a cells. The description is as above. The note with it: 1 μM or 5 μM GW2016/72 hours. As to the method: as §1, §2, §3, §4, §5
Test [6] deals with pTyr in Ha-(Val12)-ras transfected HB4a cells. The description is as above. The note with it: 1 μM or 5 μM GW2016/72 hours. The protocol:
as §1, §2, §3, §4, §5

Consider 1 compound from patent US20050176740A1, “Cancer treatment method comprising administering an erb-family inhibitor and a raf and/or ras inhibitor” (priority 2002, published 2005).

Each structure is given as a SMILES string.

In the case of `CS(=O)(=O)CCNCc1ccc(-c2ccc3ncnc(Nc4ccc(OCc5cccc(F)c5)c(Cl)c4)c3c2)o1` [GW2016, N-{3-Chloro-4-[(3-fluorobenzyl)oxy]phenyl}-6-[5-({[2-(methanesulphonyl)ethyl]amino}methyl)-2-furyl]-4-quinazolinamine], in test [1], the “Erk1/Erk2 phosphorylation, Western blot” value is “reduction in Erk1/Erk2 phosphorylation”. Besides, the “pErk1/Erk2, Western blot” value in test [2] is recorded as “decrease in pErk1/Erk2”. Moreover, the “phosphorylation of Erk1/Erk2, Western blot” value in test [3] was “no effect”. Besides, the “tyrosine phosphorylation (pTyr), Western blot” value in test [4] and in test [5] was “reduction in tyrosine phosphorylation” throughout. In addition, the “effect on phosphorylation on tyrosine residues (pTyr), Western blot” value in test [6] is recorded as “no effect”.
